Laboratory results published in the NIST ThermoML archive (doi:10.1016/j.fluid.2015.07.030).
± gives the expanded uncertainty stated by the source.

What was measured:
[1] = refractive index (other wavelength) (dimensionless); conditions: 95.99 kPa, Liquid, Wavelength=404.7 nm, Standard Abbe refractometry
[2] = Liquid; for mass density: 95.99 kPa, Vibrating tube method; for vapor or sublimation pressure: Ebulliometric method (Recirculating still)
[3] = xn = mol fraction of the nth substance listed; conditions: 293.15 K; 95.99 kPa; Liquid; Vibrating tube method; x1 = 1
[4] = refractive index (other wavelength) (dimensionless); xn = mol fraction of the nth substance listed; conditions: 95.99 kPa, Liquid, Standard Abbe refractometry, x1 = 1

OCCOCCOCCO [triethylene glycol]
Conditions	mass density, [2] [kg/m3]	refractive index, [1]	vapor or sublimation pressure, [2] [kPa]
293.15 K	1123.12 ± 0.25	1.45619 ± 0.00033 [middle of 9 runs]	–
298.15 K	1119.01 ± 0.25	1.45447 ± 0.00033 [middle of 9 runs]	–
303.15 K	1114.79 ± 0.25	1.45273 ± 0.00033 [middle of 9 runs]	–
308.15 K	1110.81 ± 0.25	1.45106 ± 0.00033 [middle of 9 runs]	–
313.15 K	1106.7 ± 0.25	1.44927 ± 0.00033 [middle of 9 runs]	–
535.65 K	–	–	53.33 ± 0.48
543.87 K	–	–	66.66 ± 0.67
551.33 K	–	–	79.99 ± 0.8
559.01 K	–	–	95.99 ± 1

O [water] + OCCOCCOCCO
Conditions	mass density [kg/m3]
[3]	998.27 ± 0.2

refractive index, [4]
Conditions	Wavelength=404.7 nm	Wavelength=435.8 nm	Wavelength=486.1 nm	Wavelength=546.1 nm	Wavelength=587.6 nm	Wavelength=589.3 nm	Wavelength=632.8 nm	Wavelength=644 nm	Wavelength=706.5 nm
293.15 K	1.34287 ± 0.00031	1.34033 ± 0.00031	1.33728 ± 0.00031	–	1.33325 ± 0.00031	1.332 ± 0.00031	1.33194 ± 0.00031	1.33164 ± 0.00031	1.33018 ± 0.00031
298.15 K	1.34223 ± 0.00031	1.33969 ± 0.00031	1.33606 ± 0.00031	1.33405 ± 0.00033	1.33262 ± 0.00031	1.33257 ± 0.00031	1.33132 ± 0.00031	1.33103 ± 0.00031	1.32956 ± 0.00031
303.15 K	1.3416 ± 0.00031	1.33908 ± 0.00031	1.33606 ± 0.00031	1.33344 ± 0.00031	1.33203 ± 0.00031	1.33198 ± 0.00031	1.33074 ± 0.00031	1.33045 ± 0.00031	1.32898 ± 0.00031
308.15 K	1.34092 ± 0.00031	1.33843 ± 0.00031	1.33538 ± 0.00031	1.33278 ± 0.00031	1.33136 ± 0.00031	1.33131 ± 0.00031	1.33007 ± 0.00031	1.32979 ± 0.00031	1.32834 ± 0.00031
313.15 K	1.3402 ± 0.00031	1.3377 ± 0.00031	1.33466 ± 0.00031	1.33207 ± 0.00031	1.33066 ± 0.00031	1.33061 ± 0.00031	1.32937 ± 0.00031	1.32908 ± 0.00031	1.32764 ± 0.00031

O [water]
Conditions	refractive index, 293.15 K	refractive index, 298.15 K	refractive index, 303.15 K	refractive index, 308.15 K	refractive index, 313.15 K	vapor or sublimation pressure, 356.16 K [kPa]	vapor or sublimation pressure, 361.89 K [kPa]	vapor or sublimation pressure, 366.73 K [kPa]	vapor or sublimation pressure, 371.71 K [kPa]
[1]	1.33325 ± 0.00031 [middle of 9 runs]	1.33262 ± 0.00031 [middle of 9 runs]	1.33203 ± 0.00031 [middle of 9 runs]	1.33136 ± 0.00031 [middle of 9 runs]	1.33066 ± 0.00031 [middle of 9 runs]	–	–	–	–
[2]	–	–	–	–	–	53.33 ± 0.37	66.66 ± 0.5	79.99 ± 0.6	95.99 ± 0.77
